Experimental data taken from the supplement of paper PMC10307832.

Experiments:
Assay in all cases: relative viability (nuclei count vs DMSO), 5 days (fraction); higher = more cells survive
PAC-1 + Trametinib = compound: C=CCc1cccc(/C=N/NC(=O)CN2CCN(Cc3ccccc3)CC2)c1O [PAC-1] + CC(=O)Nc1cccc(-n2c(=O)n(C3CC3)c(=O)c3c(Nc4ccc(I)cc4F)n(C)c(=O)c(C)c32)c1 [Trametinib] (partner 0.02 µM)
In short: (§1)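 Values are medians from duplicate plates. Each reflects relative viability, defined as the nuclei count of treated wells over that of vehicle wells. Lung cancer cell lines in 1536-well plates were pin-tool dosed one day after seeding with one drug alone or with a fixed anchor-drug dose plus five library-drug doses (not always all listed) in √10 steps, then fixed, stained and imaged at 4× after 5 days.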

PAC-1 + Linsitinib = compound: C=CCc1cccc(/C=N/NC(=O)CN2CCN(Cc3ccccc3)CC2)c1O [PAC-1] + C[C@]1(O)C[C@@H](c2nc(-c3ccc4ccc(-c5ccccc5)nc4c3)c3c(N)nccn32)C1 [Linsitinib] (partner 1 µM)
In short: as §1

PAC-1 + Navitoclax = compound: C=CCc1cccc(/C=N/NC(=O)CN2CCN(Cc3ccccc3)CC2)c1O [PAC-1] + CC1(C)CCC(c2ccc(Cl)cc2)=C(CN2CCN(c3ccc(C(=O)NS(=O)(=O)c4ccc(N[C@H](CCN5CCOCC5)CSc5ccccc5)c(S(=O)(=O)C(F)(F)F)c4)cc3)CC2)C1 [Navitoclax] (partner 0.5 µM)
In short: as §1

BMX-IN-1 + Dasatinib = compound: C=CC(=O)Nc1cc(-n2c(=O)ccc3cnc4ccc(-c5ccc(NS(C)(=O)=O)cc5)cc4c32)ccc1C [BMX-IN-1] + Cc1nc(Nc2ncc(C(=O)Nc3c(C)cccc3Cl)s2)cc(N2CCN(CCO)CC2)n1 [Dasatinib] (partner 0.075 µM)
In short: as §1

| Cell Line | relative viability (PAC-1 + Trametinib; first compound 0.02 µM) | relative viability (PAC-1 + Trametinib; first compound 0.06325 µM) | relative viability (PAC-1 + Trametinib; first compound 0.2 µM) | relative viability (PAC-1 + Trametinib; first compound 2 µM) | relative viability (PAC-1 + Linsitinib; first compound 0.02 µM) | relative viability (PAC-1 + Linsitinib; first compound 0.06325 µM) | relative viability (PAC-1 + Linsitinib; first compound 0.2 µM) | relative viability (PAC-1 + Linsitinib; first compound 2 µM) | relative viability (PAC-1 + Navitoclax; first compound 0.02 µM) | relative viability (PAC-1 + Navitoclax; first compound 0.06325 µM) | relative viability (PAC-1 + Navitoclax; first compound 0.2 µM) | relative viability (PAC-1 + Navitoclax; first compound 2 µM) | relative viability (BMX-IN-1 + Dasatinib; first compound 0.02 µM) | relative viability (BMX-IN-1 + Dasatinib; first compound 0.2 µM) | relative viability (BMX-IN-1 + Dasatinib; first compound 0.6325 µM) | relative viability (BMX-IN-1 + Dasatinib; first compound 2 µM) |
| --- | --- | --- | --- | --- | --- | --- | --- | --- | --- | --- | --- | --- | --- | --- | --- | --- |
| NCI-H2085 | 0.452 | 0.521 | 0.458 | 0.629 | 0.891 | 0.936 | 0.943 | 1.04 | 1.1 | 1.08 | 1.12 | 1.16 | 0.246 | 0.223 | 0.236 | 0.227 |
| NCI-H2087 | 0.184 | 0.227 | 0.236 | 0.244 | 1.18 | 0.931 | 0.899 | 0.875 | 1.15 | 0.991 | 0.965 | 0.998 | 1.25 | 0.931 | 1.03 | 0.926 |
| NCI-H2126 | 0.548 | 0.535 | 0.563 | 0.55 | 0.696 | 0.703 | 0.692 | 0.694 | 0.884 | 0.886 | 0.87 | 0.854 | 0.624 | 0.645 | 0.616 | 0.601 |
| NCI-H2228 | 0.394 | 0.889 | 0.433 | 0.648 | 0.575 | 0.787 | 0.603 | 0.694 | 0.98 | 1.12 | 0.893 | 0.785 | 0.497 | 0.672 | 0.593 | 0.561 |
| NCI-H2347 | 0.309 | 0.285 | 0.297 | 0.269 | 0.97 | 1.02 | 0.894 | 0.986 | 0.817 | 0.871 | 0.698 | 0.865 | 0.344 | 0.281 | 0.287 | 0.323 |
| NCI-H2405 | 0.684 | 0.688 | 0.667 | 0.73 | 0.949 | 0.918 | 0.899 | 1.08 | 0.891 | 0.969 | 0.855 | 1.08 | 0.225 | 0.501 | 0.223 | 0.19 |
